# Data taken from patent publication US20090053168A1, “TREATMENTS OF B-CELL PROLIFERATIVE DISORDERS” (priority 2007, published 2009).
# Structures can show the parent of a compound that is named as a salt. Where two headings read alike, the source gives them in different places.
# Key:
# MM.1R cells = test: Anti-proliferation assay (ATPLite, 72 h), MM.1R; format: cell-based
# RPMI-8226 cells = test: Anti-proliferation assay (ATPLite, 72 h), RPMI-8226; format: cell-based; details: for synergy score: RPMI-8226
# H929 cells = test: Anti-proliferation assay (ATPLite, 72 h), H929; format: cell-based; details: for synergy score: H929; for Synergy score with dexamethasone, H929: combination with dexamethasone, Loewe-based Synergy Score, 72 h
# MM.1S cells [1] = test: Anti-proliferation assay (ATPLite, 72 h), MM.1S; details: for synergy score: MM.1S; for Synergy score with dexamethasone, MM.1S: combination with dexamethasone, Loewe-based Synergy Score
# [2] = tested on: chronic lymphocytic leukemia (CLL) cells; test: Apoptosis assay (Hoechst 33342 flow cytometry, 48 h) on patient CLL cells; format: cell-based, human; details: for Induction of CLL cell apoptosis: Patient #1
# Excerpt: Patients with active infections or other serious medical conditions were not included in this study. Patients with white blood cell counts of less than 15,000/μl by automated analysis were excluded from this study. Whole blood was layered on Ficoll-Hystopaque (Sigma), and peripheral blood mononuclear cells (PBMC) isolated after centrification. […] One million cells were stained with anti-CD5-PE and anti-CD19-PE-Cy5 (Becton […].). The percentage of B-CLL cells was defined as the percentage of cells doubly expressing CD5 and CD19, as determined by flow cytometry. […] Compound master plates were diluted 1:50 into complete media to create working compound dilutions. Compound crosses were then created by diluting two working dilution plates 1:10 into each plate of cells. […] Hoechst 33342 (Molecular Probes, Eugene Oreg.) at a final concentration of 0.25 μg/mL was added to each well and the cells incubated at 37° C. for an additional ten minutes before being placed on ice until analysis. Plates were then analyzed on a LSR-II flow cytometer (Becton Dickenson, Franklin Lakes, N.J.) equipped with the High Throughput Sampling (HTS) option in high throughput mode. […] The apoptotic fraction was calculated using FlowJo software (Tree Star Inc., Ashland, Oreg.) after excluding debris by a FSC/SSC gate and subsequently gating for cells that accumulate the Hoechst dye.
# MM.1S cells [3] = details: MM.1S
# [4] = in combination with ADAC, MM.1R
# [5] = in combination with HE-NECA, MM.1R
# [6] = combination with dexamethasone, Loewe-based Synergy Score, 72 h
# [7] = Homo sapiens, MM1.S, read-out: percent inhibition of cell proliferation
# [8] = Homo sapiens, MM1.S, 72 h, read-out: percent inhibition of cell proliferation
compound,measurement,setting,value
C[C@@H]1C[C@H]2O[C@@H]2/C=C\C=C\C(=O)Cc2c(Cl)c(O)cc(O)c2C(=O)O1 [Monordon],synergy score,MM.1R cells,1.7
CC(=O)S[C@@H]1CC2=CC(=O)CC[C@]2(C)[C@H]2CC[C@@]3(C)[C@@H](CC[C@@]34CCC(=O)O4)[C@H]12 [Spironolactone],synergy score,RPMI-8226 cells; in combination with ADAC,0.8213
same,synergy score,RPMI-8226 cells; in combination with HE-NECA,0.6876
same,synergy score,H929 cells; in combination with ADAC,0.6779
same,synergy score,H929 cells; in combination with HE-NECA,1.831
same,synergy score,MM.1R cells; [4],2.029
same,synergy score,MM.1R cells; [5],1.151
same,synergy score,MM.1S cells [1]; in combination with ADAC,1.444
same,synergy score,MM.1S cells [1]; in combination with HE-NECA,1.835
O=c1[nH]c(=O)n([C@H]2C[C@H](O)[C@@H](CO)O2)cc1C(F)(F)F [Trifluridine],synergy score,MM.1R cells; [5],1.94
"COc1ccc(Cc2nccc3cc(OC)c(OC)cc23)cc1OC [Papaverine, 1-[(3.4-dimethoxyphenyl)-methyl]-6,7-dimethoxyisoquinolone]","Synergy score with dexamethasone, RPMI-8226",RPMI-8226 cells; [6],3.49
same,"Synergy score with dexamethasone, H929",H929 cells,3.05
same,"Synergy score with dexamethasone, MM.1S",MM.1S cells [1]; 72 h,2.99
C#C[C@]1(O)CC[C@H]2[C@@H]3CCC4=CC(=O)CCC4=C3C=C[C@@]21CC [Gestrinone],synergy score,MM.1R cells,1.19
Cn1cnc([N+](=O)[O-])c1Sc1ncnc2nc[nH]c12 [Azathioprine],synergy score,RPMI-8226 cells; in combination with ADAC,1.63
same,synergy score,H929 cells; in combination with ADAC,1.22
same,synergy score,MM.1R cells; [4],1.26
same,synergy score,MM.1S cells [1]; in combination with ADAC,1.43
C[C@H]1c2cccc(O)c2C(=O)C2=C(O)[C@]3(O)C(=O)C(C(N)=O)=C(O)[C@@H](N(C)C)[C@@H]3[C@@H](O)[C@@H]21 [Doxycycline],synergy score,RPMI-8226 cells; in combination with ADAC,1.17
same,synergy score,H929 cells; in combination with ADAC,2.35
same,synergy score,MM.1R cells; [4],0.78
same,synergy score,MM.1S cells [1]; in combination with ADAC,2.22
"COc1ccc(Cc2nn3c([C@@H](CCCc4ccccc4)[C@@H](C)O)nc(C)c3c(=O)[nH]2)cc1OC [BAY 60-7550, 2-(3,4-dimethoxybenzyl)-7-[(1R)-1-[(1R)-1-hydroxyethyl]-4-phenylbutyl]-5-methylimidazo[5,1-f][1,2,4]triazin-4(3H)-one]","Synergy score with dexamethasone, RPMI-8226",RPMI-8226 cells; [6],1.37
same,"Synergy score with dexamethasone, H929",H929 cells,0.822
same,inhibition at 0.437 µM,MM.1S cells [1]; [7],2.2%
same,inhibition at 1.31 µM,MM.1S cells [1]; [7],1.7%
same,inhibition at 3.93 µM,MM.1S cells [1]; [7],3%
same,inhibition at 35.4 µM,MM.1S cells [1]; [7],44%
same,"Synergy score with dexamethasone, MM.1S",MM.1S cells [1]; 72 h,1.44
CC(C)[C@]12O[C@H]1[C@@H]1O[C@]13[C@]1(O[C@H]1C[C@H]1C4=C(CC[C@@]13C)C(=O)OC4)[C@@H]2O [Triptolide],synergy score,MM.1R cells; [5],2.12
O=c1cc(N2CCOCC2)oc2c(-c3ccccc3)cccc12 [LY 294002],synergy score,MM.1R cells; [5],0.83
COc1cccc2c1C(=O)c1c(O)c3c(c(O)c1C2=O)C[C@@](O)(C(=O)CO)C[C@@H]3O[C@H]1C[C@H](N)[C@@H](O)[C@H](C)O1 [Epirubicin],synergy score,RPMI-8226 cells; in combination with ADAC,1.14
same,synergy score,H929 cells; in combination with ADAC,0.33
same,synergy score,MM.1R cells; [4],1.42
"CCCCCC[C@@H]([C@@H](C)O)n1cnc2c(N)ncnc21 (racemic) [EHNA, erythro-9-(2-hydroxy-3-nonyl)adenine]","Synergy score with dexamethasone, RPMI-8226",RPMI-8226 cells,1.14
CCCCc1oc2ccccc2c1C(=O)c1cc(I)c(OCCN(CC)CC)c(I)c1 [Amiodarone],synergy score,MM.1R cells; [5],0.67
"CCNC(=O)[C@H]1O[C@@H](n2cnc3c(N)nc(NCCc4ccc(CCC(=O)O)cc4)nc32)[C@H](O)[C@@H]1O [CGS-21680, 2-(4-(2-carboxyethyl)phenethylamino)-5′-N-ethylcarboxamidoadenosine]","Synergy score with dexamethasone, RPMI-8226",RPMI-8226 cells; [6],2.54
same,Induction of CLL cell apoptosis,[2]; CGS-21680 0.05 μM alone,12%
same,Induction of CLL cell apoptosis,[2]; CGS-21680 0.15 μM alone,14%
same,Induction of CLL cell apoptosis,[2]; CGS-21680 0.45 μM alone,16%
same,"apoptosis, CLL cells patient 1","[2]; patient 1, 48 hours",14%
same,"apoptosis, CLL cells patient #2","[2]; patient #2, 48 hours",9%
same,"Synergy score with dexamethasone, MM.1S",MM.1S cells [1]; 72 h,4.73
Nc1nc2c(cnn2CCc2ccccc2)c2nc(-c3ccco3)nn12 [SCH 58261],blocking of chloro-IB-MECA antiproliferative activity,"MM.1S cells [3]; SCH 58261 78 nM, 72 hours, 2-fold dilutions of chloro-IB-MECA",> 50%
same,blocking of chloro-IB-MECA antiproliferative activity,MM.1S cells [3]; antagonist concentration increased 2-fold,> 70%
"OC[C@H]1O[C@@H](n2cnc3c(NC4CCCC4)nc(Cl)nc32)[C@H](O)[C@@H]1O [CCPA, 2-chloro-N^6-cyclopentyladenosine]","Synergy score with dexamethasone, RPMI-8226",RPMI-8226 cells; [6],5.04
same,inhibition at 0.0625 µM,MM.1S cells [1]; [8],2.4%
same,inhibition at 0.187 µM,MM.1S cells [1]; [8],21%
same,inhibition at 0.562 µM,MM.1S cells [1]; [8],15%
same,inhibition at 1.69 µM,MM.1S cells [1]; [8],38%
same,inhibition at 5.06 µM,MM.1S cells [1]; [8],50%
same,activity and synergy in antiproliferation assays,"MM.1S cells [1]; RPMI-8226, H929, MM.1S and MM.1R MM cell lines",active and synergistic
same,"Synergy score with dexamethasone, MM.1S",MM.1S cells [1]; 72 h,5.15
Nc1ccn([C@@H]2O[C@H](CO)[C@@H](O)C2(F)F)c(=O)n1 [Gemcitibine],synergy score,RPMI-8226 cells; in combination with ADAC,0.3
same,synergy score,H929 cells; in combination with ADAC,0.07
same,synergy score,MM.1R cells; [4],1.2
same,synergy score,MM.1S cells [1]; in combination with ADAC,1.42
CN1C[C@H](C(=O)N[C@]2(C)O[C@@]3(O)[C@@H]4CCCN4C(=O)[C@H](Cc4ccccc4)N3C2=O)C[C@@H]2c3cccc4[nH]cc(c34)C[C@H]21 [Dihydroergotamine],synergy score,MM.1R cells; [5],2.56
"COc1ccc(C2CNC(=O)C2)cc1OC1CCCC1 (centres unmarked) [Rolipram, 4-(3-cyclopentyloxy-4-methoxyphenyl)-2-pyrrolidone]","Synergy score with dexamethasone, RPMI-8226",RPMI-8226 cells; [6],1.43
same,"Synergy score with dexamethasone, H929",H929 cells,0.0927
same,"Synergy score with dexamethasone, MM.1S",MM.1S cells [1]; 72 h,0.203
"CN(C(=O)CCCOc1ccc2[nH]c(=O)ccc2c1)C1CCCCC1 [Cilostamide, N-cyclohexyl-4-((1,2-dihydro-2-oxo-6-quinolinyl)oxy)-N-methyl-butanamide]","Synergy score with dexamethasone, RPMI-8226",RPMI-8226 cells; [6],1.42
same,"Synergy score with dexamethasone, H929",H929 cells,0.982
same,inhibition at 0.368 µM,MM.1S cells [1]; [7],0.46%
same,inhibition at 1.1 µM,MM.1S cells [1]; [7],2.4%
same,inhibition at 3.31 µM,MM.1S cells [1]; [7],-2%
same,inhibition at 9.93 µM,MM.1S cells [1]; [7],4.2%
same,inhibition at 29.8 µM,MM.1S cells [1]; [7],33%
same,"Synergy score with dexamethasone, MM.1S",MM.1S cells [1]; 72 h,1.34
CCCCOc1ccc(CC(=O)NO)cc1 [Bufexamac],synergy score,RPMI-8226 cells; in combination with ADAC,1.399
same,synergy score,RPMI-8226 cells; in combination with HE-NECA,0.3833
same,synergy score,H929 cells; in combination with ADAC,1.12
same,synergy score,H929 cells; in combination with HE-NECA,3.17
same,synergy score,MM.1R cells; [4],1.532
same,synergy score,MM.1R cells; [5],3.173
same,synergy score,MM.1S cells [1]; in combination with ADAC,1.479
same,synergy score,MM.1S cells [1]; in combination with HE-NECA,3.476
O=C1C=C2C(=CCOC2O)O1 (centres unmarked) [Patulin],synergy score,MM.1R cells; [5],1.73
CCc1c2c(nc3ccc(OC(=O)N4CCC(N5CCCCC5)CC4)cc13)-c1cc3c(c(=O)n1C2)COC(=O)[C@]3(O)CC [Irinotecan hydrochloride],synergy score,RPMI-8226 cells; in combination with ADAC,1.414
same,synergy score,RPMI-8226 cells; in combination with HE-NECA,1.227
same,synergy score,H929 cells; in combination with ADAC,1.877
same,synergy score,H929 cells; in combination with HE-NECA,0.6736
same,synergy score,MM.1R cells; [4],3.13
same,synergy score,MM.1R cells; [5],0.6972
same,synergy score,MM.1S cells [1]; in combination with ADAC,2.576
same,synergy score,MM.1S cells [1]; in combination with HE-NECA,0.6406
